# Patent US4959182A, “Method and compositions providing enhanced chemiluminescence from 1,2-dioxetanes” (priority 1989, dated 1990)
# Where two headings read alike, the source gives them in different places.
# Key:
# firefly luciferase = conditions: cationic surfactant; cited from earlier work
# [1] = Fluorescence of ester cleavage product / self-quenching of fluorescer; type: physicochemical
# Text: However, the chemiluminescent decomposition of this dioxetane can be conveniently triggered at room temperature by removal of the silyl-protecting with fluoride ion to generate the unstable, aryloxide form which cleaves to yield intense blue light.
# In general the molar ratio of the dioxetane to fluorescent compound is between about 1,000 to 1 and 1 to 1 whether in solution or in a solid composition.
# [2] = type: physicochemical
# Method: Rates for thermal decomposition of the stable dioxetanes were monitored by the decay of chemiluminescence of aerated solutions. A cylindrical Pyrex vial equipped with magnetic stir bar was filled with 3-4 mL of the reaction solvent, sealed with a Teflon-lined screw cap and placed in the thermostatted sample block of the chemiluminescence-measuring luminometer. Temperature control was provided by an external circulating water bath. Appropriate values for the instrument gain and optical slit size were selected. […]. The vial was sealed with a Teflon-lined screw cap to prevent evaporation when high temperatures were used. Measurement of the signal was begun by opening the shutter. The chemiluminescent decay was generally recorded for at least three half-lives. Calculation of the first-order rate constant (k) from the In (Intensity) vs. time data was performed by a computer program utilizing a standard least-squares treatment. The correlation coefficient (r) was typically at least 0.999 and k varied less than 5% between replicate samples.
# Activation parameters for decomposition of the dioxetanes were calculated from plots of In k vs. 1/T (Arrhenius eq.) or In k/t vs. 1/T (Eyring eq.) by a standard least-squares linear regression analysis.
# Activation Energies for Thermal Decomposition of Dioxetanes
# [3] = Base-triggered chemiluminescence of dioxetanes 2a/2b in DMSO, water, CTAB micelles and micelles with fluorescent co-surfactant
# Text: The chemiluminescence quantum yield (.PHI.CL) for the decomposition of dioxetanes is defined as the ratio of einsteins of chemiluminescence emitted to moles of dioxetane decomposed. Sufficient energy is released during the reaction from the reaction enthalpy (ΔHR) plus the Arrhenius activation energy (Ea) to populate the singlet excited state of one of the carbonyl cleavage products. Therefore, the maximum quantum yield is 1.0. Another parameter of interest is the chemiexcitation quantum yield (.PHI.CE) which is defined as the ratio of excited states formed to dioxetane decomposed. The chemiexcitation quantum yield is related to the chemiluminescence quantum yield via the fluorescence quantum yield of the dioxetane cleavage (.PHI.F) through the equation: .phi.CL =.phi.CE X .phi.F.
# The same procedure as those employed in the measurement of the decay kinetics was used for the determination of chemiluminescence quantum yields with the following modifications. An accurately measured aliquot of a dioxetane stock solution of known concentration was added to 3 mL of the pre-thermostatted organic solvent or aqueous buffer. The reaction was then triggered by adding the appropriate chemical reagent or enzyme. The total light intensity was integrated by a photon-counting luminometer using an RCA A-31034A gallium-arsenide PMT cooled to -78° C.
# Spectra of the chemiluminescence from chemically or enzymatcally triggered dioxetanes were obtained by conducting the reaction in a 1-cm square quartz cuvette in the sample compartment of a Spex Fluorolog spectrofluorometer at ambient temperature. Correction for the decay of the chemiluminescence intensity during the wavelength scan was made by accumulating the spectrum in a ratio mode so that the observed spectrum was divided by the signal from an auxiliary detector (EMI 9781B) which measures the total signal as a function of time. The monochromator bandpass was typically 18 nm. For weakly emitting samples, several identical scans were performed and added together to improve the signal-to-noise ratio.
# 1. Triggering the Chemiluminescence of Hydroxy-Substituted Dioxetane 2a with Base.
# 2. […] Cationic surfactants such as cetyltrimethylammonium bromide (CTAB) can be used to increase rates for chemical triggering of chemiluminescence from appropriately substituted dioxetanes in aqueous solution. […] The dioxetane is solubilized in the micelles formed by the surfactant and NaOH is added to initiate the chemiluminescence. […] Typically, the experiments were carried out with [2b]=9.1×10^-5 M, [CTAB]=2×10^-3 M, and [OH^- ]=9.1×10^-5 M at 37° C.
# Similar experiments were conducted with the benzothiazamide surfactant 4. […] Enzymatic Triggering of Phosphate-Substituted Dioxetane 2c.
# Urease = assay: Triggering of hydroxy-substituted dioxetane 2a with urease in fluorescent micelles; type: biochemical; conditions: 10 μL of 3×10^-3 M 2a, CTAB and 3, room temperature
# Method: 5. Enzymatic Triggering of Hydroxy-Substituted Dioxetane 2a with Urease in the Prescence of Fluorescent Micelles. A solution was prepared using 160 mg of CTAB and 12.4 mg of fluorescein surfactant 3 in 200 mL of distilled water. A urea solution was made by dissolving 200 mg of urea in 100 mL of distilled water with EDTA added to give a final concentration of 0.4 mM. The substrate solution for the urease experiments was obtained by mixing 10mL of each stock solution.
# Experiments were carried out with urease (Sigma) by incubation at room temperature for periods of 0.5 to 2 hours. […] The intensity of the luminescence provided a measure of the concentration of urease.
# [4] = type: physicochemical; remark: listed apart in the source
# [5] = test system: Alkaline Phosphatase from Bovine Intestinal Mucosa; assay: Alkaline phosphatase triggering of xanthenone-derived phosphate dioxetane; type: biochemical
# Method: Triggering experiments were conducted using alkaline phosphatase from bovine intestinal mucosa suspension of 5.3 mg of protein (1100 units/mg protein) per mL in 3.2 M (NH4)2 SO4 ]and the phosphate-protected dioxetane at pH 10.3 in 0.75 M 2-amino-2-methyl- 1-propanol buffer. […]. […] The rate of decay of the emission is a function of enzyme concentration while the total light emission is independent of the enzyme concentration because of turnover of the enzyme. The chemiluminescence spectrum for the phosphatase-catalyzed decomposition was obtained at room temperature in the buffer solution.
# [6] = thermal decomposition in xylene
smiles,measurement,setting,value
"CCCCCCCCCCCCCCCC[N+](C)(C)C.[Br-] [CTAB, cetyltrimethylammonium bromide]",inhibition of the catalytic activity of the luciferase,firefly luciferase,complete inhibition
CCCCCCCCCCCCCC(=O)Nc1ccc2c(c1)C(=O)OC21c2ccc(O)cc2Oc2cc(O)ccc21 [compound 3],self-quenching when used alone in solution,[1]; no CTAB,quenches itself when used alone in solution
"COC1(c2cccc(O)c2)OOC12C1CC3CC(C1)CC2C3 (stereo not drawn) [2a, 4-(3-Hydroxyphenyl)-4-methoxyspiro[1,2-dioxetane-3,2'-adamantane]]",half-life,"[2]; in xylene, 25° C., read-out: t1/2 at 25° C. (converted)",1500 days
same,Ea,[2]; [6],28.3
same,Log A,[2]; [6],12.5
same,k(sec^-1) at 25° C.,"[2]; thermal decomposition in xylene, 25° C.",5.38e-09 s⁻¹
same,period of chemiluminescence decay,"[3]; 10^-4 M, excess tetra-n-butylammonium hydroxide, DMSO, room temperature",several minutes
same,chemiluminescence quantum yield (.PHI.CL),[3]; base in DMSO,0.25
same,light yield (chemiluminescence quantum yield),[3]; base in water,8.9×10^-6
same,emission maximum for the chemiluminescence,"[3]; tetra-n-butylammonium hydroxide in DMSO, room temperature",470 nm
same,luminescence after incubation with urease,Urease,produced chemiluminescence
O=P(O)(O)Oc1ccc2c(c1)Oc1ccccc1C21OOC12C1CC3CC(C1)CC2C3 (stereo not drawn),half-life,[4]; 25° C.,4380 days
same,spontaneous decomposition in aqueous buffers,[4]; aqueous buffers,very slow spontaneous decomposition
same,activation energy,[4]; thermal,30.7 kcal/mol
same,period of chemiluminescence decay,"[5]; 4.2×10^-6 M dioxetane, 1.8 μg/mL protein, pH 10.3, 37° C.",3 min
same,total light emission vs dioxetane concentration,"[5]; pH 10.3, 37° C.",linearly dependent on the dioxetane concentration
same,"background luminescence from non-enzymatic hydrolysis, of enzymatic","[5]; pH 10.3 buffer, over 3 min, 37° C.",0.2%
COC(=O)c1cccc(O)c1 [methyl 3-hydroxylbenzoate],fluorescence quantum yield (.PHI.^F),[1]; ester cleavage product under conditions of fluoride triggering,0.44
